In one assay the test system is Panc3.27 tumor cells. In words: Cellular assay, Panc3.27 tumor cell proliferation (Cell Titer Glo). Format: cell-based. The following applies: citrate salt form tested, Panc3.27 cells, 72 hour growth, read-out: PANC proliferation IC50. The procedure: (§1) The compounds described herein above were profiled using a cellular assay (using SKOV3 or Panc3.27 tumor cells) and a binding assay to determine the competition between the compounds of the present invention and smac7 mer peptide for XIAP-BIR3 and cIAP1-BIR3 binding groove occupancy.
(§2) On day one adherent SKOV3 and Panc3.27 cells are plated into two 96-well, clear, flat bottom plates. All wells in row A contain 90 uL of media. All wells in rows B-G contain a total volume of 90 uL per well and 2000 cells per well for SKOV3 and 4000 cells per well for Panc3.27 cell lines. Plates are then incubated overnight for 18 hours at 37° C., 5% CO2.
(§3) On day two cells are treated with the compounds of formula M-L-M′. Treatments are done in triplicate. The compounds are first serially diluted in DMSO and then added to media giving a final concentration of 0.2% DMSO when added to cells. Cells are treated with 10 uL of serially diluted compounds of formula M-L-M′ at a final concentration of 1000 nM, 200 nM, 40 nM, 8 nM, 1.6 nM, 0.32 nM, 0.06 nM, 0.013 nM, 0.0026 nM, and one untreated well. Plate two is used as a time zero plate.
(§4) To measure cell viability 50 uL of Cell Titer Glo (CTG) solution is added to row A, media only and B, cells and media. CTG is purchased from Promega Corporation catalog number G7573. The solution is prepared according to manufacturer's instructions. CTG measures the amount of ATP released from viable cells that is proportional to the number of cells in each well. After incubating for ten minutes with CTG plates are measured on a luminescent reader at 700 nm wavelength. Read time is approximately one second per well for a 96-well plate.
(§5) On day five 50 uL of CTG is added to plate one, rows A-G, incubated for 10 minutes at room temperature and read on a luminescent reader. Raw data is adjusted to account for the time zero plate as well as background noise. Triplicate values are averaged and percent control growth is calculated. Percent control growth is calculated using the following logical test: If well read data point (a) is greater than time zero data point (t=0), then 100*[(a)−(t=0)]/[(72 hour total growth)−(t=0)], OR 100*[(a)−(t=0)]/[(t=0)]. Data is represented by line graph with the concentration of compound on the x axis and percent control growth on the y axis.
(ATP-based viability assays read luminescence as a measure of living cells.)

A further assay has as its system SKOV3 tumor cells. In words: Cellular assay, SKOV3 tumor cell proliferation (Cell Titer Glo). It is filed as cell-based. The following applies: Homo sapiens, SK-OV-3, citrate salt form tested, 72 hour growth. How it is done:
as §1, §2, §3, §4, §5

A further assay concerns the target XIAP-BIR3 (Homo sapiens, UniProt P98170). In words: Biacore SPR solution competition binding assay vs smac7 mer peptide, XIAP-BIR3. The following applies: citrate salt form tested; 100 nM XIAP-BIR3; 25° C.; read-out: XIAP-BIR3 Binding Biacore (Competitive) EC50.
Text: as §1
(§6) The present method includes utility of a Surface plasmon resonance (SPR)-based biosensor (Biacore™ GE Healthcare, Uppsala, Sweden) to examine competition between the compounds of the present invention and smac7 mer peptide for XIAP-BIR3 and cIAP1-BIR3 binding groove occupancy.
(§7) Biacore™ utilizes the phenomenon of surface plasmon resonance (SPR) to detect and measure binding interactions. In a typical Biacore experiment, one of the interacting molecules is immobilized on a flexible dextran matrix while the interacting partner is flowed over the derivatized surface. A binding interaction results in an increase in mass on the sensor surface and a corresponding direct change in the refractive index of the medium in the vicinity of the sensor surface. Changes in refractive index or signal are recorded in resonance units (R.U.) Signal changes due to association and dissociation of complexes are monitored in a non-invasive manner, continuously and in real-time, the results of which are reported in the form of a sensorgram.
(§8) Biacore™ T100 (GE Healthcare, Uppsala, Sweden) was used to conduct all experiments reported herein. Sensor surface preparation and interaction analyses were performed at 25° C. Buffer and Biacore reagents were purchased from GE Healthcare. Running buffer containing 10 mM Hepes, pH7.4, 150 mM sodium chloride, 1.25 mM Dithiothreitol, 2% Dimethyl sulfoxide and 0.05% polysorbate 20 was utilized throughout all experiments.
(§9) Biotinylated smac7 mer peptide was diluted to 10 nM in running buffer and captured onto a sensor surface pre-derivatized with streptavidin (sensor chip SA) towards peptide surface densities in the range 40-100 R.U. Peptide captured surfaces were blocked with 500 μM PEO2-Biotin (Thermo Scientific).
(§10) Interaction analyses were performed by first equilibrating each compound within a six point seven fold compound dilution series in the range 1 μM to 0.06 nM with either 100 nM XIAP-BIR3 or 6 nM cIAP1-BIR3 for at least one hour during instrument start-up procedures. Protein compound mixtures were then injected over reference and smac7 mer peptide surfaces in series for 60 seconds at a flow-rate of 64 μL/minutes. Surface regeneration was performed at the end of each analysis cycle by a 30 second injection of 10 mM Glycine, pH 2.5, 1M Sodium Chloride, 0.05% polysorbate 20. Additionally, control compound samples and control XIAP-BIR3 or cIAP1-BIR3 samples were prepared and run at regular intervals to monitor surface and assay performance.
(§11) Data analyses were carried out using Biacore™ T100 evaluation software v2.0 to validate assay quality. Binding level report points were plotted versus logarithmic compound concentration values and analyzed in Graphpad prism 5 via non-linear regression using a one-site competition model. EC50 values were generated and used as a measure of inhibitor potency.
(In SPR one partner is held on a chip, and binding of the other changes the refractive index at the surface.)

Another assay addresses cIAP1-BIR3 (Homo sapiens, UniProt Q13490). The experiment in a line: Biacore SPR solution competition binding assay vs smac7 mer peptide, cIAP1-BIR3. The following applies: citrate salt form tested; 6 nM cIAP1-BIR3; 25° C.; read-out: CIAP-BIR3 Binding Biacore (Competitive) EC50.
Text: as §1, §6, §7, §8, §9, §10, §11

The text below walks through data of patent publication US8445440B2, “Dimeric IAP inhibitors” (Novartis AG, priority 2010, dated 2013).

What is called EC50 is the midpoint of the concentration-response curve.

Chain of cIAP1-BIR3 (Q13490 260-352 limits assumed): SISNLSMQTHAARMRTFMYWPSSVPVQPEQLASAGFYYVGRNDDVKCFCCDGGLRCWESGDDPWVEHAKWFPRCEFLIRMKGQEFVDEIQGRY
Chain of XIAP-BIR3 (P98170 241-356 limits assumed): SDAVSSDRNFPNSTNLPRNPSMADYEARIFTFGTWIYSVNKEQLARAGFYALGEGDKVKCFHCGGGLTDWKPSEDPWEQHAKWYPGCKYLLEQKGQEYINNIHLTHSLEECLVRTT

With `CN[C@@H](C)C(=O)N[C@@H](CCCCNC(=O)CCCCCC(=O)NCCCC[C@H](NC(=O)[C@H](C)NC)C(=O)N1CCC[C@H]1c1cncc(C(=O)c2ccc(F)cc2)c1)C(=O)N1CCC[C@H]1c1cncc(C(=O)c2ccc(F)cc2)c1` [Example 1A, Heptanedioic acid bis-{[(S)-6-{(S)-2-[5-(4-fluoro-benzoyl)-pyridin-3-yl]-pyrrolidin-1-yl}-5-((S)-2-methylamino-propionylamino)-6-oxo-hexyl]-amide}], the IC50 with Panc3.27 tumor cells lay within 0.0724 to 0.427 µM; in the assay on SKOV3 tumor cells, 0.041 to 0.0771 µM. Also, the EC50 at XIAP-BIR3 lay within 0.126 to 0.131 µM; at cIAP1-BIR3 it was 0.00068 to 0.0007 µM.

Take `CN[C@@H](C)C(=O)N[C@@H](CCCCNC(=O)c1ccc(C(=O)NCCCC[C@H](NC(=O)[C@H](C)NC)C(=O)N2CCC[C@H]2c2cncc(C(=O)c3ccc(F)cc3)c2)cc1)C(=O)N1CCC[C@H]1c1cncc(C(=O)c2ccc(F)cc2)c1` [Example 1C, N,N′-Bis-[(S)-6-{(S)-2-[5-(4-fluorobenzoyl)-pyridin-3-yl]-pyrrolidin-1-yl}-5-((S)-2-methylamino-propionylamino)-6-oxo-hexyl]-terephthalamide]: the results for the IC50 in the assay with Panc3.27 tumor cells and in the assay with SKOV3 tumor cells were 0.0633 to 0.147 µM and 0.084 to 0.127 µM, respectively. Further, the EC50 at XIAP-BIR3 fell in the range of 0.413 to 0.425 µM; at cIAP1-BIR3 it was 0.00475 to 0.00489 µM.

For the compound `CN[C@@H](C)C(=O)N[C@@H](CCCCNS(=O)(=O)c1ccc(-c2ccc(S(=O)(=O)NCCCC[C@H](NC(=O)[C@H](C)NC)C(=O)N3CCC[C@H]3c3cncc(C(=O)c4ccc(F)cc4)c3)cc2)cc1)C(=O)N1CCC[C@H]1c1cncc(C(=O)c2ccc(F)cc2)c1` [Example 1D, (S)-N-((S)-1-((S)-2-(5-(4-fluorobenzoyl)pyridin-3-yl)pyrrolidin-1-yl)-6-(4′-(N-((S)-6-((S)-2-(5-(4-fluorobenzoyl)pyridin-3-yl)pyrrolidin-1-yl)-5-((S)-2-(methylamino)propanamido)-6-oxohexyl)sulfamoyl)biphenyl-4-ylsulfonamido)-1-oxohexan-2-yl)-2-(methylamino)propanamide], the IC50 lay in the range of 0.0123 to 0.119 µM in the assay on Panc3.27 tumor cells and 0.0374 to 0.0842 µM with SKOV3 tumor cells. Further, the EC50 on XIAP-BIR3 fell in the range of 0.0885 to 0.129 µM; at cIAP1-BIR3, 0.00031 to 0.00034 µM.

Turning to `CN[C@@H](C)C(=O)N[C@@H](CCCCNC(=O)c1cccc(C(=O)NCCCC[C@H](NC(=O)[C@H](C)NC)C(=O)N2CCC[C@H]2c2cncc(C(=O)c3ccc(F)cc3)c2)c1)C(=O)N1CCC[C@H]1c1cncc(C(=O)c2ccc(F)cc2)c1` [Example 1E, N,N′-Bis-[(S)-6-{(S)-2-[5-(4-fluoro-benzoyl)-pyridin-3-yl]-pyrrolidin-1-y}-5-((S)-2-methylamino-propionylamino)-6-oxo-hexyl]-isophthalamide], the IC50 in the assay with Panc3.27 tumor cells is 0.0268 to 0.185 µM; in the assay with SKOV3 tumor cells, 0.0267 to 0.0794 µM. In addition, the EC50 on XIAP-BIR3 lay in the range of 0.139 to 0.158 µM; at cIAP1-BIR3, 0.00047 to 0.00052 µM.

On to `CN[C@@H](C)C(=O)N[C@@H](CCCCNC(=O)CCCCCCCC(=O)NCCCC[C@H](NC(=O)[C@H](C)NC)C(=O)N1CCC[C@H]1c1cncc(C(=O)c2ccc(F)cc2)c1)C(=O)N1CCC[C@H]1c1cncc(C(=O)c2ccc(F)cc2)c1` [Example 1F, Nonanedioic acid bis-{[(S)-6-{(S)-2-[5-(4-fluoro-benzoyl)-pyridin-3-yl]-pyrrolidin-1-yl}-5-((S)-2-methylamino-propionylamino)-6-oxo-hexyl]-amide}], for which the IC50 fell in the range of 0.0129 to 0.106 µM in the assay with Panc3.27 tumor cells and 0.0161 to 0.0201 µM in the assay on SKOV3 tumor cells. For the same compound, the results for the EC50 on XIAP-BIR3 and at cIAP1-BIR3 were 0.129 to 0.145 µM and 0.00068 to 0.00069 µM, respectively.

`CN[C@@H](C)C(=O)N[C@@H](CCCCNC(=O)CCCCCCCCC(=O)NCCCC[C@H](NC(=O)[C@H](C)NC)C(=O)N1CCC[C@H]1c1cncc(C(=O)c2ccc(F)cc2)c1)C(=O)N1CCC[C@H]1c1cncc(C(=O)c2ccc(F)cc2)c1` [Example 1G, Decanedioic acid bis-{[(S)-6-{(S)-2-[5-(4-fluoro-benozyl)-pyridin-3-yl]-pyrrolidin-1-yl}-5-((S)-2-methylamino-propionylamino)-6-oxo-hexyl]-amide}]: the figures for the IC50 in the assay on Panc3.27 tumor cells and in the assay on SKOV3 tumor cells were 0.00522 to 0.0279 µM and 0.00964 to 0.0164 µM, respectively. Besides, the EC50 on XIAP-BIR3 was 0.0972 to 0.108 µM; at cIAP1-BIR3, 0.00071 µM.

In the case of `CN[C@@H](C)C(=O)N[C@@H](CCCCNS(=O)(=O)c1ccc2ccc(S(=O)(=O)NCCCC[C@H](NC(=O)[C@H](C)NC)C(=O)N3CCC[C@H]3c3cncc(C(=O)c4ccc(F)cc4)c3)cc2c1)C(=O)N1CCC[C@H]1c1cncc(C(=O)c2ccc(F)cc2)c1` [Example 1H, (S)-N-((S)-1-((S)-2-(5-(4-fluorobenzoyl)pyridin-3-yl)pyrrolidin-1-yl)-6-(7-(N-((S)-6-((S)-2-(5-(4-fluorobenzoyl)pyridin-3-yl)pyrrolidin-1-yl)-5-((S)-2-(methylamino)propanamido)-6-oxohexyl)sulfamoyl)naphthalene-2-sulfonamido)-1-oxohexan-2-yl)-2-(methylamino)propanamide], the results for the IC50 in the assay with Panc3.27 tumor cells and with SKOV3 tumor cells were 0.0133 to 0.14 µM and 0.0808 to 0.0864 µM, respectively. Also, the results for the 50% effective concentration (EC50) at XIAP-BIR3 and at cIAP1-BIR3 were 0.0463 to 0.0535 µM and 0.00088 µM, respectively.

As for `O=C(NCCCC[C@H](NC(=O)[C@@H]1CCN1)C(=O)N1CCC[C@H]1c1cncc(C(=O)c2ccc(F)cc2)c1)c1ccc(-c2ccc(C(=O)NCCCC[C@H](NC(=O)[C@@H]3CCN3)C(=O)N3CCC[C@H]3c3cncc(C(=O)c4ccc(F)cc4)c3)cc2)cc1` [Example 1K, Biphenyl-4,4′-dicarboxylic acid bis-[((S)-5-[((S)-azetidine-2-carbonyl)-amino]-6-{(S)-2-[5-(4-fluoro-benzoyl)-pyridin-3-yl]-pyrrolidin-1-yl}-6-oxo-hexyl)-amide]], the IC50 with Panc3.27 tumor cells was greater than 10 µM; in the assay on SKOV3 tumor cells it was 9.42 to 9.46 µM. The EC50 on XIAP-BIR3 lay in the range of 0.636 to 0.704 µM; at cIAP1-BIR3 it was 0.0184 to 0.0194 µM.

For the compound `CN[C@@H](C)C(=O)N[C@@H](Cc1ccc(NC(=O)CCCCCC(=O)Nc2ccc(C[C@H](NC(=O)[C@H](C)NC)C(=O)N3CCC[C@H]3c3cncc(C(=O)c4ccc(F)cc4)c3)cc2)cc1)C(=O)N1CCC[C@H]1c1cncc(C(=O)c2ccc(F)cc2)c1` [Example 2A, Heptanedioic acid bis-({4-[(S)-3-{(S)-2-[5-(4-fluoro-benzoyl)-pyridin-3-yl]-pyrrolidin-1-yl}-2-((S)-2-methylamino-propionylamino)-3-oxo-propyl]-phenyl}-amide)], the IC50 in the assay with SKOV3 tumor cells was 0.0235 to 0.0258 µM. For the same compound, the EC50 on XIAP-BIR3 fell in the range of 0.146 to 0.154 µM; at cIAP1-BIR3, 0.00073 to 0.00074 µM.
